Our source for the IC50 values is patent US10336702B2, “Pharmaceutically active compounds” (BERGENBIO ASA, priority 2015, dated 2019).

In one assay the target is T1, Akt3 (Homo sapiens, UniProt Q9Y243).
T1 construct: unspecified tag, removed (detagged) (cleaved yes); purchased SignalChem and Proteros (Akt3); Merck Millipore (PDK1) 14-452 (PDK1); none given for Akt3
Put plainly: Akt activation assay (PDK1-mediated activation, LANCE Ultra crosstide TR-FRET), Akt3. The class given is biochemical. Particulars: read-out: Biological Assay 1 IC50 (nM) Akt3. An outline of the steps: (§1)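 Two-step cascade format: Akt1, Akt2 or Akt3 phosphorylates Ulight-crosstide (100 nM) only after activation by 5 nM PDK1 in presence of PtdIns(3,4,5)P3 vesicles and 100 μM ATP. Product quantified by Eu-antibody TR-FRET after 30 min reaction.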

The target of a further assay is T2, p-Akt1 in LNCaP cells (Homo sapiens, UniProt P31749).
T2 construct: SureFire assays to detect cellular p-Akt1, p-Akt2 and p-Akt3 levels in WM115 cells (Akt2/3) and LNCaP cells (Akt1); endogenous in cells; host or cells: LNCaP (ECACC 89110211)
T2 sequence (P31749 whole entry): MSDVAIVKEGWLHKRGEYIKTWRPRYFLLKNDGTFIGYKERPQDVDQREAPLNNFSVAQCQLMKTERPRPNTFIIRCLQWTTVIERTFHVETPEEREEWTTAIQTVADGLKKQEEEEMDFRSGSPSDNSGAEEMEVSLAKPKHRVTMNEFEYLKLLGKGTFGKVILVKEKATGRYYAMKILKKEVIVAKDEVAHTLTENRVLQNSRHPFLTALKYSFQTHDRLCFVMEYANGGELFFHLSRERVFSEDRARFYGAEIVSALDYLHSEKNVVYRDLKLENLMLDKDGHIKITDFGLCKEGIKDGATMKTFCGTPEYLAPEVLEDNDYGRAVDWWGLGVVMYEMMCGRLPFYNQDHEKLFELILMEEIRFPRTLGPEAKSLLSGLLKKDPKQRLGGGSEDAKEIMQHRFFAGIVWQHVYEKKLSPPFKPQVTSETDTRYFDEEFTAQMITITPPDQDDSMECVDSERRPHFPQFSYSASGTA
Put plainly: Phospho-Akt cellular SureFire assay, p-Akt1 in LNCaP cells. The class given is cell-based. Particulars: read-out: Biological Assay 2 IC50 (nM) Akt1 LNCaP. An outline of the steps: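 Phospho-Thr308 Akt1 detected by AlphaScreen SureFire proximity beads in LNCaP lysates after 15 min compound treatment at 37 °C in 0.1% FBS medium, unstimulated, 0.3% DMSO. Cells plated at 5×10^4/well overnight; IC50 from a 4-parameter equation.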

A further assay addresses T3, p-Akt2 in WM115 cells (Homo sapiens, UniProt P31751).
T3 construct: SureFire assays to detect cellular p-Akt1, p-Akt2 and p-Akt3 levels in WM115 cells (Akt2/3) and LNCaP cells (Akt1); endogenous in cells; host or cells: WM115 (ECACC 91061232), insulin-stimulated
Put plainly: Phospho-Akt cellular SureFire assay, p-Akt2 in WM115 cells. The class given is cell-based. As to conditions: insulin stimulated, read-out: Biological Assay 2 IC50 (nM) Akt2 WM115. The method, boiled down: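 Readout is a bead-proximity SureFire assay pairing a pThr308 Akt antibody with a total Akt2 antibody, lysate and beads incubated 2 h plus 2 h at room temperature in the dark. Before lysis, serum-starved WM115 cells received 100 nM insulin (10 min), then test compound (15 min, 0.3% DMSO); IC50 by 4-parameter equation.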

The target in another assay is T4, Akt1 (Homo sapiens, UniProt P31749).
T4 construct: unspecified tag, removed (detagged) (cleaved yes); purchased SignalChem and Proteros (Akt1); Merck Millipore (PDK1) 14-452 (PDK1); none given for Akt1
T4 sequence (P31749 whole entry): as above
Put plainly: Akt activation assay (PDK1-mediated activation, LANCE Ultra crosstide TR-FRET), Akt1. As to conditions: read-out: Biological Assay 1 IC50 (nM) Akt1. Type of assay: biochemical. The method, boiled down:
as §1

A further assay has as its target T5, Akt2 (Homo sapiens, UniProt P31751).
T5 construct: unspecified tag, removed (detagged) (cleaved yes); purchased SignalChem and Proteros (Akt2); Merck Millipore (PDK1) 14-452 (PDK1); none given for Akt2
Put plainly: Akt activation assay (PDK1-mediated activation, LANCE Ultra crosstide TR-FRET), Akt2. As to conditions: read-out: Biological Assay 1 IC50 (nM) Akt2. The class given is biochemical. An outline of the steps:
as §1

In the next assay the target is T6, p-Akt3 in WM115 cells (Homo sapiens, UniProt Q9Y243).
T6 construct: SureFire assays to detect cellular p-Akt1, p-Akt2 and p-Akt3 levels in WM115 cells (Akt2/3) and LNCaP cells (Akt1); endogenous in cells; host or cells: WM115 (ECACC 91061232), insulin-stimulated
T6 sequence (Q9Y243 whole entry): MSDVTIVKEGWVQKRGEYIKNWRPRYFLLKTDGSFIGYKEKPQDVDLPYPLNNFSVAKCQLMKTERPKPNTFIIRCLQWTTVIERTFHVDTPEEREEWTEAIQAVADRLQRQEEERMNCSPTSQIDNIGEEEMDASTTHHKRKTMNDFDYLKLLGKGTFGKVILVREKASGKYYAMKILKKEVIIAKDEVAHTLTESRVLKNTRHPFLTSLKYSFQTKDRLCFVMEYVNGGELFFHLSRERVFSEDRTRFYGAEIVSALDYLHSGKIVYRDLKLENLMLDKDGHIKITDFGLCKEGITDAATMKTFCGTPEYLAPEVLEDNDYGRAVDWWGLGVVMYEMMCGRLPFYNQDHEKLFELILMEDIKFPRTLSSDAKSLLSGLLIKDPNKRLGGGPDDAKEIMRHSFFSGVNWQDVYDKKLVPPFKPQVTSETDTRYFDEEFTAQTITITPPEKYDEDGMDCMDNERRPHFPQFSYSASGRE
Put plainly: Phospho-Akt cellular SureFire assay, p-Akt3 in WM115 cells. Type of assay: cell-based. Particulars: insulin stimulated, read-out: Biological Assay 2 IC50 (nM) Akt3 WM115. The method, boiled down: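 pThr308-Akt3 in lysates was quantified by bead-proximity SureFire detection, pairing a phospho-specific antibody with a total Akt3 antibody. Before lysis, WM115 cells in 0.1% FBS medium were treated for 15 min at 37 °C with compound (final DMSO 0.3%), following a 10 min stimulation with 100 nM insulin. IC50 was obtained by 4-parameter fitting.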

T1 sequence (Q9Y243 whole entry): as above
T3 sequence (P31751 whole entry): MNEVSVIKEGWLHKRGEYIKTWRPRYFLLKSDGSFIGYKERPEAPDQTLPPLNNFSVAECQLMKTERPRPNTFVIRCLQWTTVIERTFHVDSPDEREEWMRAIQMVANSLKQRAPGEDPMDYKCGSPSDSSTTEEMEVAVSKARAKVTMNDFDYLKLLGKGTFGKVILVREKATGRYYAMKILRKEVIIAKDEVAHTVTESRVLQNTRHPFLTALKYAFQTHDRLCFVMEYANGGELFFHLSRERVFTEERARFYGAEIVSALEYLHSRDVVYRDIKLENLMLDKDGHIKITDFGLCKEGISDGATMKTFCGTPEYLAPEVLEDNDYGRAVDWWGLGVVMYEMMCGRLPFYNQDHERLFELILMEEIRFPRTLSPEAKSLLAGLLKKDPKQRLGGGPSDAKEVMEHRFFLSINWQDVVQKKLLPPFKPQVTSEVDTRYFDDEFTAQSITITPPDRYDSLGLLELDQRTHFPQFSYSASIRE
T5 sequence (P31751 whole entry): as above

Take `CCC(=O)N(C(C)C)[C@H]1CC[C@H](CC(=O)Nc2cnc(-c3ccc([C@]4(N)C[C@](C)(O)C4)cc3)c(-c3ccccc3)c2)CC1` [Example 122, N-(trans-4-(2-((6-(4-(trans-1-amino-3-hydroxy-3-methylcyclobutyl)phenyl)-5-phenylpyridin-3-yl)amino)-2-oxoethyl)cyclohexyl)-N-isopropylpropionamide]: the IC50 on Akt3 amounted to 8 nM; at p-Akt1 in LNCaP cells, 1400 nM; at p-Akt2 in WM115 cells, 390 nM; at Akt1, 6100 nM; at Akt2, 87 nM; on p-Akt3 in WM115 cells, 13 nM.
With `COC(=O)N(C)[C@H]1CC[C@H](CC(=O)Nc2cnc(-c3ccc(C(C)(C)N)cc3)c(-c3ccsc3)c2)CC1` [Example A67, Methyl (trans-4-(2-((6-(4-(2-aminopropan-2-yl)phenyl)-5-(thiophen-3-yl)pyridin-3-yl)amino)-2-oxoethyl)cyclohexyl)(methyl)carbamate], the half-maximal inhibitory concentration (IC50) at Akt3 is 200 nM; on p-Akt1 in LNCaP cells, above 30000 nM; at p-Akt2 in WM115 cells, above 30000 nM; at Akt1, above 30000 nM; on Akt2 it was 8900 nM; on p-Akt3 in WM115 cells it was 830 nM.
Take `CCN(C(=O)C1CC1)[C@H]1CC[C@H](CC(=O)Nc2cc(-c3ccccc3)c(-c3ccc([C@]4(N)C[C@](C)(O)C4)cc3)nn2)CC1` [Example 114, N-(trans-4-(2-((6-(4-(trans-1-amino-3-hydroxy-3-methylcyclobutyl)phenyl)-5-phenylpyridazin-3-yl)amino)-2-oxoethyl)cyclohexyl)-N-ethylcyclopropanecarboxamide]: the half-maximal inhibitory concentration (IC50) on Akt3 was 7 nM; at p-Akt1 in LNCaP cells, 3300 nM; on p-Akt2 in WM115 cells, 440 nM; on Akt1, above 23000 nM; at Akt2, 110 nM; on p-Akt3 in WM115 cells, 5 nM.
Take `CN([C@H]1CC[C@H](CC(=O)Nc2cnc(-c3ccc(C(C)(C)N)cc3)c(-c3ccsc3)c2)CC1)S(C)(=O)=O` [Example A24, N-(6-(4-(2-aminopropan-2-yl)phenyl)-5-(thiophen-3-yl)pyridin-3-yl)-2-(trans-4-(N-methylmethylsulfonamido)cyclo-hexyl)acetamide]: the half-maximal inhibitory concentration (IC50) was 2000 nM at Akt3; above 30000 nM on p-Akt1 in LNCaP cells; 8900 nM at p-Akt2 in WM115 cells; above 30000 nM at Akt1; 9600 nM on Akt2; 510 nM at p-Akt3 in WM115 cells.
As to `CCC(=O)N(C)[C@H]1CC[C@H](CC(=O)Nc2cc(-c3ccccc3)c(-c3ccc([C@]4(N)C[C@](C)(O)C4)c(F)c3)nn2)CC1` [Example 126, N-(trans-4-(2-((6-(4-(trans-1-amino-3-hydroxy-3-methylcyclobutyl)-3-fluorophenyl)-5-phenylpyridazin-3-yl)amino)-2-oxoethyl)cyclohexyl)-N-methylpropionamide], the IC50 on Akt3 was 31 nM; on p-Akt1 in LNCaP cells it was above 30000 nM; on p-Akt2 in WM115 cells, 3300 nM; at Akt1 it was above 30000 nM; at Akt2, 3000 nM; at p-Akt3 in WM115 cells it was 32 nM.
Consider `CC(=O)N(C)[C@H]1CC[C@H](CC(=O)Nc2cnc(-c3ccc(C(C)(C)N)nc3)c(-c3ccccc3)c2)CC1` [Example 43, N-(6′-(2-aminopropan-2-yl)-3-phenyl-[2,3′-bipyridin]-5-yl)-2-(trans-4-(N-methylacetamido)cyclohexyl)acetamide], for which the IC50 at Akt3 was 1100 nM; on p-Akt1 in LNCaP cells, above 30000 nM; on p-Akt2 in WM115 cells, above 30000 nM; at Akt1, above 30000 nM; at Akt2, above 30000 nM; at p-Akt3 in WM115 cells it was 1700 nM.
As for `CC(=O)N[C@H]1CC[C@H](CC(=O)Nc2cnc(-c3ccc([C@H](N)C(F)F)cc3)c(-c3ccccc3)c2)CC1` [Example A12, 2-(trans-4-acetamidocyclohexyl)-N-(6-(4-((S)-1-amino-2,2-difluoroethyl)phenyl)-5-phenylpyridin-3-yl)acetamide], the half-maximal inhibitory concentration (IC50) at Akt3 is 4500 nM; at p-Akt1 in LNCaP cells, above 20000 nM; on p-Akt2 in WM115 cells, 24000 nM; on Akt1, above 30000 nM; on Akt2, 16000 nM; at p-Akt3 in WM115 cells, 590 nM.
Turning to `CCC(=O)N(C(C)C)[C@H]1CC[C@H](CC(=O)Nc2cc(-c3ccccc3)c(-c3ccc([C@]4(N)C[C@](C)(O)C4)cc3)nn2)CC1` [Example 104, N-(trans-4-(2-((6-(4-(trans-1-amino-3-hydroxy-3-methylcyclobutyl)phenyl)-5-phenylpyridazin-3-yl)amino)-2-oxoethyl)cyclohexyl)-N-isopropylpropionamide], the IC50 on Akt3 is 10 nM; at p-Akt1 in LNCaP cells, 1900 nM; on p-Akt2 in WM115 cells it was 1300 nM; on Akt1, 3200 nM; on Akt2, 120 nM; on p-Akt3 in WM115 cells, 27 nM.
`CN(C(=O)C1CC1)[C@H]1CC[C@H](CC(=O)Nc2cc(-c3ccccc3)c(-c3ccc([C@]4(N)C[C@](C)(O)C4)cc3)nn2)CC1` [Example A78, N-(trans-4-(2-((6-(4-(trans-1-amino-3-hydroxy-3-methylcyclobutyl)phenyl)-5-phenylpyridazin-3-yl)amino)-2-oxoethyl)cyclohexyl)-N-methylcyclopropanecarboxamide]: the concentration for half-maximal inhibition (IC50) amounted to 4 nM at Akt3; 1400 nM on p-Akt1 in LNCaP cells; 370 nM on p-Akt2 in WM115 cells; 1900 nM on Akt1; 71 nM on Akt2; 8 nM on p-Akt3 in WM115 cells.
On to `CC(=O)N(C)[C@H]1CC[C@H](CC(=O)Nc2cnc(-c3ccc(C(C)(C)N)cc3)c(-c3ccccc3)c2)CC1` [Example 3, N-(6-(4-(2-aminopropan-2-yl)phenyl)-5-phenylpyridin-3-yl)-2-(trans-4-(N-methylacetamido)cyclohexyl)acetamide], for which the IC50 at Akt3 is 72 nM; on p-Akt1 in LNCaP cells, above 26000 nM; on p-Akt2 in WM115 cells, 10000 nM; on Akt1 it was above 30000 nM; on Akt2, above 30000 nM; at p-Akt3 in WM115 cells it was 170 nM.
`CN([C@H]1CC[C@H](CC(=O)Nc2cnc(-c3ccc(C(C)(C)N)cc3)c(-c3ccccc3)c2)CC1)S(C)(=O)=O` [Example A25, N-(6-(4-(2-aminopropan-2-yl)phenyl)-5-phenylpyridin-3-yl)-2-(trans-4-(N-methylmethylsulfonamido)cyclo-hexyl)acetamide]: the IC50 at Akt3 was 560 nM; at p-Akt1 in LNCaP cells, above 15000 nM; at p-Akt2 in WM115 cells, 5400 nM; on Akt1, above 30000 nM; at Akt2 it was 5100 nM; at p-Akt3 in WM115 cells it was 260 nM.
`NC1(c2ccc(-c3cnc(NC(=O)C[C@H]4CC[C@H](N5CCCC5=O)CC4)cc3-c3ccccc3)cc2)CCC1` [Example A71, N-(5-(4-(1-aminocyclobutyl)phenyl)-4-phenylpyridin-2-yl)-2-(trans-4-(2-oxopyrrolidin-1-yl)cyclohexyl)acetamide]: the half-inhibitory concentration (IC50) is 15 nM at Akt3; 3400 nM at p-Akt1 in LNCaP cells; 1500 nM at p-Akt2 in WM115 cells; 7500 nM on Akt1; 110 nM on Akt2; 130 nM on p-Akt3 in WM115 cells.
In the case of `COC(=O)N(C)[C@H]1CC[C@H](CC(=O)Nc2cc(-c3ccccn3)c(-c3ccc(C4(N)CC4)cc3)cn2)CC1` [Example A88, Methyl ((1r,4r)-4-(2-((5′-(4-(1-aminocyclopropyl)phenyl)-[2,4′-bipyridin]-2′-yl)amino)-2-oxoethyl)cyclohexyl)(methyl)carbamate], the half-inhibitory concentration (IC50) on Akt3 was 1400 nM; at p-Akt1 in LNCaP cells, above 30000 nM; on p-Akt2 in WM115 cells it was above 30000 nM; at Akt1, above 30000 nM; on Akt2, above 27000 nM; on p-Akt3 in WM115 cells, 1600 nM.
